Reference: article PMC7762994 (Viruses, 2020)
Read-outs that look alike come from different tables or passages of the source.

Columns and labels:
Hazara virus (HAZV) [1] = assay: microbe, parasite or virus in culture; format: cell-based
Vero cells = assay: Cell viability, MTT assay; format: cell-based; details: 48 h
Huh7 cells = assay: Cell viability, resazurin assay; format: cell-based; details: Huh7 cells, 24, 48 or 72 h
CCHFV = format: cell-based, Crimean-Congo hemorrhagic fever virus; details: Vero cells, MOI 1, 10 µM, 48 h
EBOV = format: cell-based, Sudan Ebolavirus; details: Vero cells, MOI 0.5, 10 µM, 48 h
CoV 229E = CoV 229E titer in Huh7 cells, end-point dilution assay; format: cell-based, Coronavirus 229E; details: MOI 5, 10 µM, 24 h
Hazara virus (HAZV) [2] = assay: microbe, parasite or virus in culture; format: cell-based; details: SW13, 24 h; for inhibition at 10 µM: read-out: Viral inhibition on primary infection (%)
SW13 cells = assay: Viability of SW13 cells by nuclei count in the HAZV antiviral assay; format: cell-based; details: Homo sapiens
[3] = as above; format: cell-based; details: human, SW13 cells inoculated with HAZV; SW13 cells, nuclei count relative to DMSO, 10 μM, 24 h
SARS-CoV-2 = format: cell-based
OGG1 = OGG1 (Homo sapiens, UniProt O15527); assay: In vitro OGG1 activity assay; format: biochemical; details: for OGG1 activity (in words): Figure 3A
Chain of OGG1 (O15527 whole entry): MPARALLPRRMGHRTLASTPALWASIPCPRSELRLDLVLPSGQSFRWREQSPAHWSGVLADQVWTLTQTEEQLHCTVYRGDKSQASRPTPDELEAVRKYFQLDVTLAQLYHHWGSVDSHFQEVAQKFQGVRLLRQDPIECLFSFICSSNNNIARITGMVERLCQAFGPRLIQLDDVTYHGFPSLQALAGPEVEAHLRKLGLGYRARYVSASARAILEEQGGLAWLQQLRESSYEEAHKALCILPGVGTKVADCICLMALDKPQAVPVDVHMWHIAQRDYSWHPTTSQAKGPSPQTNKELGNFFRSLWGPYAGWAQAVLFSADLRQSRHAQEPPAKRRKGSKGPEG

SMILES: NC(=O)c1ncn([C@@H]2O[C@H](CO)[C@@H](O)[C@H]2O)n1 [Ribavirin, reference compound]
- reduction of HAZV viral titer (Hazara virus (HAZV) [1]; 100 µM, positive control): 98%

SMILES: O=C(Nc1ccc(I)cc1)N1CCC(n2c(=O)[nH]c3cc(Cl)ccc32)CC1 [TH3289]
- toxicity profile, viability by MTT assay (Vero cells): favourable toxicity profile
- toxicity profile, cellular viability by resazurin assay (Huh7 cells): favourable toxicity profile
- reduction of CCHFV viral titer (CCHFV): 70%
- reduction of EBOV viral titer (EBOV): 40%
- reduction of CoV 229E titer (CoV 229E): 84%
- IC50 (Hazara virus (HAZV) [2]; read-out: Antiviral on primary infection IC50 [µM]): 18.7 µM
- EC50 (Hazara virus (HAZV) [2]; read-out: EC50 Infected cells (primary infection)): 18.7 µM
- inhibition at 10 µM (Hazara virus (HAZV) [2]): 58%
- EC50 (SW13 cells; SW13, 24 h, read-out: EC50 Living cells): 46.5 µM
- EC50 (SW13 cells; HAZV, SW13, MOI 1, 24 h, read-out: Viability (nuclei count) EC50): 47.5 µM
- viability at 24 h, 10 µM [3]: 77%
- reduction of SARS-CoV-2 titer (SARS-CoV-2): 58%
- IC50 (Hazara virus (HAZV) [1]; Hazara virus, SW13, 24 h, read-out: Antiviral on titer (µM) IC50 [µM]): 14.7 µM
- EC50 (Hazara virus (HAZV) [1]; Hazara virus, SW13, read-out: EC50 Viral titer): 14.7 µM
- inhibition at 10 µM (Hazara virus (HAZV) [1]; Hazara virus, Vero, 24 h, read-out: Viral inhibition on titer (%)): 95%
- reduction of HAZV titer (Hazara virus (HAZV) [1]; SW13 cells, MOI 1, 10 µM, 24 h): 94%
- OGG1 activity (in words) (OGG1): Micromolar OGG1activity

SMILES: O=C(Nc1ccc(I)cc1)N1CCC(c2c[nH]c3ccccc23)CC1 [TH4448, 4‐(1H‐indol‐3‐yl)‐N‐(4‐iodophenyl)piperidine‐1‐carboxamide]
- inhibition at 10 µM (Hazara virus (HAZV) [2]): 98%
- viability at 24 h, 10 µM [3]: 82%
- IC50 (OGG1): > 99 µM
- OGG1 activity (in words) (OGG1): No OGG1 activity
